Assay results from BindingDB's records for patent US20250313563 (The Broad Institute, 2025).
Where “and” joins values, the source holds several entries; their conditions need not be identical. Equal values may be shown once.

Tests used:
[1] = target: Glycogen synthase kinase-3 beta (Homo sapiens, UniProt P49841); assay: TR-FRET Assay
Summary of the method: (§1)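 Enzyme and test compound were first incubated together for 30 minutes in assay buffer. The kinase reaction followed and was stopped with EDTA. The pSer641 signal was read by time-resolved FRET.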

[2] = target: Glycogen synthase kinase-3 alpha (Homo sapiens, UniProt P49840); assay: TR-FRET Assay
Glycogen synthase kinase-3 alpha, sequence (P49840 whole entry): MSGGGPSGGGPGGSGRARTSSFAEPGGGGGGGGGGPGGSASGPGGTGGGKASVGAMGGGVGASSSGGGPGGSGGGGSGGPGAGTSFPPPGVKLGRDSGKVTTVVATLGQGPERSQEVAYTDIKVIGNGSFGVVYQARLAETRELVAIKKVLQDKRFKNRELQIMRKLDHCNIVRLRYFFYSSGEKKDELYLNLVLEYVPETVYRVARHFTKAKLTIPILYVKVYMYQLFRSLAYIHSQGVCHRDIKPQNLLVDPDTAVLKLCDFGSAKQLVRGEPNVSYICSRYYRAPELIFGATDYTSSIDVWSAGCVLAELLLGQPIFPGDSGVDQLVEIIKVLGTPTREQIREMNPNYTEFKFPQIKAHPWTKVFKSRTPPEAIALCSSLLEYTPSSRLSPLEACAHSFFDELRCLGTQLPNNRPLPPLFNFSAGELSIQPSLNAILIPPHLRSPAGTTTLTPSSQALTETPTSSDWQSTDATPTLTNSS
Summary of the method: as §1

Glycogen synthase kinase-3 beta, sequence (P49841 whole entry): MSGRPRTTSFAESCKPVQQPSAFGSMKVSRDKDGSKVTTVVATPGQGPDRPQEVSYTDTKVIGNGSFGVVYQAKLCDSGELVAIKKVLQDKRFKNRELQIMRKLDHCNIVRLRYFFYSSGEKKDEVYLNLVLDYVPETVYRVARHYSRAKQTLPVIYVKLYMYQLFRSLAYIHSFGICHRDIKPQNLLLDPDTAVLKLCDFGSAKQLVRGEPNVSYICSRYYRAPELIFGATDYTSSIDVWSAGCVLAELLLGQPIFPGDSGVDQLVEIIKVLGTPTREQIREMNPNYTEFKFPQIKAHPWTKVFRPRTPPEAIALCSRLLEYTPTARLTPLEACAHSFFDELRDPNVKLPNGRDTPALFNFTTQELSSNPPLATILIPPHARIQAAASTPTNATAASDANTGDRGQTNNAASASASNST

SMILES	IC50 [1]	IC50 [2]
CC1(C)CC(=O)C2=C(C1)NC1=C(CN=N1)C21CCN(S(C)(=O)=O)C1 (centres undefined) [US20250313563, Compound 912092]	< 0.1 µM	< 0.1 µM
CC1(C)CC(=O)C2=C(C1)NC1=C(CN=N1)C21CCN(S(=O)(=O)c2cccc(OC(F)F)c2)CC1 [US20250313563, Compound 947242]	< 0.1 µM and 0.1 to 1 µM	< 0.1 µM
CN(C)C(=O)c1cccc(S(=O)(=O)N2CCC3(CC2)C2=C(N=NC2)NC2=C3C(=O)CC(C)(C)C2)c1 [US20250313563, Compound 947247]	< 0.1 µM	< 0.1 µM
CC1(C)CC(=O)C2=C(C1)NC1=C(CN=N1)C21COC2(CN(C(=O)C(C)(C)C)C2)C1 (centres undefined) [US20250313563, Compound 947303]	< 0.1 µM	< 0.1 µM
Cn1cncc1-c1cccc([C@]2(C)C3=C(CC(C)(C)CC3=O)NC3=C2C(CC(C)(C)C)N=N3)c1 (some centres undefined) [US20250313563, Compound 126014]	0.1 to 1 µM	0.1 to 1 µM
CC1(C)CC(=O)C2=C(C1)NC1=C(CN=N1)C21CCN(S(=O)(=O)c2cnn(CC(F)(F)F)c2)CC1 [US20250313563, Compound 948123]	< 0.1 µM and 0.1 to 1 µM	< 0.1 µM and 0.1 to 1 µM
CC(C)c1ccccc1S(=O)(=O)N1CCC2(CC1)C1=C(N=NC1)NC1=C2C(=O)CC(C)(C)C1 [US20250313563, Compound 947473]	0.1 to 1 µM	0.1 to 1 µM
CCC1(c2cccc(-c3ccnc4c3CCCC4)c2)C2=C(N=NC2)NC2=C1C(=O)C(C)(C)C2 (centres undefined) [US20250313563, Compound 952752]	0.1 to 1 µM	< 0.1 µM
Cc1cccc(C(=O)N2CC3(C2)CC2(CO3)C3=C(N=NC3)NC3=C2C(=O)CC(C)(C)C3)c1C (centres undefined) [US20250313563, Compound 947284]	0.1 to 1 µM	< 0.1 µM
CC1(C)CC(=O)C2=C(C1)NC1=C(CN=N1)C21COC2(CN(C(=O)C(C)(F)F)C2)C1 (centres undefined) [US20250313563, Compound 947275]	< 0.1 µM and 0.1 to 1 µM	< 0.1 µM and 0.1 to 1 µM
CC1N=NC2=C1C(C)(c1cccc(C(F)(F)F)c1)C1=C(CC(C)(C)CC1=O)N2 (centres undefined) [US20250313563, Compound 811556]	< 0.1 µM	< 0.1 µM
CC1(C)CC(=O)C2=C(C1)NC1=C(CN=N1)[C@]21COC2(CN(C(=O)Cc3ccccc3)C2)C1 [US20250313563, Compound 948036]	0.1 to 1 µM	0.1 to 1 µM
CCC1(c2ccccc2)C2=C(N=NC2)NC2=C1C(=O)CC1(CC1)C2 (centres undefined) [US20250313563, Compound 789330]	1 to 5 µM	0.1 to 1 µM
CC1(C)CC(=O)C2=C(C1)NC1=C(CN=N1)C21COC2(CN(C(=O)c3cccc(F)c3)C2)C1 (centres undefined) [US20250313563, Compound 947283]	< 0.1 µM	< 0.1 µM
CC1(C)CC(=O)C2=C(C1)NC1=C(CN=N1)C21COC1 [US20250313563, Compound 889569]	0.1 to 1 µM	0.1 to 1 µM
Cn1ccc(S(=O)(=O)N2CCCC3(CC2)C2=CN=NC2NC2=C3C(=O)CC(C)(C)C2)n1 (centres undefined) [US20250313563, Compound 917138]	< 0.1 µM	< 0.1 µM
C[C@@H]1C[C@]2(CCO1)C1=C(N=NC1)NC1=C2C(=O)CC(C)(C)C1 [US20250313563, Compound 924308]	0.1 to 1 µM	0.1 to 1 µM
CC1(C)CC(=O)C2=C(C1)NC1=C(CN=N1)C21CCN(S(=O)(=O)c2ccccc2F)CC1 [US20250313563, Compound 901465]	< 0.1 µM and 0.1 to 1 µM	< 0.1 µM
CC1(C)CC(=O)C2=C(C1)NC1=C(CN=N1)C21CCN(S(=O)(=O)c2ccccc2Cl)CC1 [US20250313563, Compound 945655]	< 0.1 µM	< 0.1 µM
Cc1nccc([C@H]2CC[C@]3(CC2)C2=C(N=NC2)NC2=C3C(=O)CC(C)(C)C2)c1C [US20250313563, Compound 950478]	< 0.1 µM	< 0.1 µM
CC1(C)CC(=O)C2=C(C1)NC1=C(CN=N1)[C@]21CCOC1 [US20250313563, Compound 877313]	0.1 to 1 µM	0.1 to 1 µM
CC1(C)CC(=O)C2=C(C1)NC1=C(C(C3CC3)N=N1)C21CN(S(=O)(=O)CC2CC2)C1 (centres undefined) [US20250313563, Compound 109152]	0.1 to 1 µM	0.1 to 1 µM
CC1(C)CC(=O)C2=C(C1)NC1=C(CN=N1)C21COCCOC1 [US20250313563, Compound 912094]	> 5 µM	1 to 5 µM

Second part, the compound after the results:

IC50 [1]	IC50 [2]	SMILES
< 0.1 µM	< 0.1 µM	CCC1(c2cccc(-c3ccncc3C)c2)C2=C(CC(C)(C)CC2=O)NC2N=NC(C)=C21 (centres undefined) [US20250313563, Compound 883991]
1 to 5 µM	0.1 to 1 µM	CC[C@@]1(c2cccc(-c3cc(C)ncc3C)c2)C2=C(CC(C)(C)CC2=O)NC2N=NC(C)=C21 (some centres undefined) [US20250313563, Compound 913019]
0.1 to 1 µM	< 0.1 µM	CCC1(c2cccc(-c3ccnc(C)c3F)c2)C2=C(CC(C)(C)NC2=O)NC2N=NC(C)=C21 (centres undefined) [US20250313563, Compound 947402]
0.1 to 1 µM and 1 to 5 µM	0.1 to 1 µM	CC[C@@]1(c2cccc(-c3ccnc4c3CCC4)c2)C2=CN=NC2NC2=C1C(=O)CC(C)(C)C2 (some centres undefined) [US20250313563, Compound 945606]
< 0.1 µM	< 0.1 µM	CCC1(c2cccc(-c3cc(C)ncc3C)c2)C2=C(CC(C)(C)CC2=O)NC2N=NC(C)=C21 (centres undefined) [US20250313563, Compound 883988]
1 to 5 µM	< 0.1 µM	CC[C@@]1(c2cccc(-c3ccnc(C)c3)c2)C2=CN=NC2NC2=C1C(=O)C[C@H](C)C2 (some centres undefined) [US20250313563, Compound 932657]
0.1 to 1 µM	< 0.1 µM	CC[C@]1(c2cccc(C(F)(F)F)c2)C2=C(CC(C)(C)NC2=O)NC2N=NC(F)=C21 (some centres undefined) [US20250313563, Compound 957518]
< 0.1 µM	< 0.1 µM	CCC1(c2cccc(N(C(C)=O)C(C)C)c2)C2=CN=NC2NC2=C1C(=O)CC(C)(C)C2 (centres undefined) [US20250313563, Compound 893305]
> 5 µM	> 5 µM	CC[C@@]1(c2cccc(N3C[C@H](C)[C@@H](C)C3)c2)C2=CN=NC2NC2=C1C(=O)CC(C)(C)C2 (some centres undefined) [US20250313563, Compound 924520]
< 0.1 µM and 1 to 5 µM	< 0.1 µM and 0.1 to 1 µM	CC[C@@]1(c2cccc(S(=O)(=O)C3CC3)c2)C2=CN=NC2NC2=C1C(=O)N(C)C(C)(C)C2 (some centres undefined) [US20250313563, Compound 949177]
< 0.1 µM and 0.1 to 1 µM	< 0.1 µM and 0.1 to 1 µM	CC[C@]1(c2cccc(C(F)(F)C(F)(F)F)c2)C2=CN=NC2NC2=C1C(=O)CC(C)(C)C2 (some centres undefined) [US20250313563, Compound 949103]
1 to 5 µM	0.1 to 1 µM	CCC1(c2cccc(N3CC(C)(C)C3C(C)C)c2)C2=CN=NC2NC2=C1C(=O)CC(C)(C)C2 (centres undefined) [US20250313563, Compound 902969]
1 to 5 µM	0.1 to 1 µM	CC[C@@]1(c2cccc(-c3cnn(-c4cnccn4)c3)c2)C2=CN=NC2NC2=C1C(=O)NC(C)(C)C2 (some centres undefined) [US20250313563, Compound 952207]
< 0.1 µM and 0.1 to 1 µM	< 0.1 µM	CC[C@]1(c2cccc(Oc3ncccn3)c2)C2=C(CC(C)(C)NC2=O)NC2N=NC(C(F)(F)F)=C21 (some centres undefined) [US20250313563, Compound 951607]
< 0.1 µM	< 0.1 µM	CC[C@@]1(c2cccc(N3CCOCC3)c2)C2=C(CC(C)(C)NC2=O)NC2N=NC(C(F)(F)F)=C21 (some centres undefined) [US20250313563, Compound 949013]
0.1 to 1 µM	< 0.1 µM	CCC1(c2cccc(N3CCCC[C@H]3C)c2)C2=CN=NC2NC2=C1C(=O)CC(C)(C)C2 (some centres undefined) [US20250313563, Compound 885228]
1 to 5 µM	0.1 to 1 µM	CC[C@@]1(c2cccc(-c3cc(C4CCCC4)nn3C)c2)C2=CN=NC2NC2=C1C(=O)NC(C)(C)C2 (some centres undefined) [US20250313563, Compound 952023]
0.1 to 1 µM	0.1 to 1 µM	CC[C@]1(c2cccc(C(C)C)c2)C2=C(CC(C)(C)NC2=O)NC2N=NC(C(F)(F)F)=C21 (some centres undefined) [US20250313563, Compound 950493]
1 to 5 µM	0.1 to 1 µM	CC[C@@]1(c2cccc(-c3cnn4c3CCCC4)c2)C2=C(CC(C)(C)CC2=O)NC2N=NC(C)=C21 (some centres undefined) [US20250313563, Compound 913033]
1 to 5 µM	0.1 to 1 µM	CCC1(c2cccc(C(F)(F)F)c2)C2=CN=NC2NC2=C1C(=O)NC(c1ccccc1)C2 (centres undefined) [US20250313563, Compound 917284]
0.1 to 1 µM	< 0.1 µM	CC[C@@]1(c2cccc(-c3ccnn3C)c2)C2=CN=NC2NC2=C1C(=O)NC1(CCS(=O)(=O)CC1)C2 (some centres undefined) [US20250313563, Compound 949394]
1 to 5 µM	1 to 5 µM	CCC1(c2cccc(N3CCc4cnccc4C3)c2)C2=CN=NC2NC2=C1C(=O)CC(C)(C)C2 (centres undefined) [US20250313563, Compound 929449]
< 0.1 µM	< 0.1 µM	CCC1(c2cccc(-c3ccnc4c3CCC4)c2)C2=CN=NC2NC2=C1C(=O)CC(C)(C)C2 (centres undefined) [US20250313563, Compound 943534]
< 0.1 µM	< 0.1 µM	CCC1(c2cccc(N(c3cccnc3)C(C)C)c2)C2=CN=NC2NC2=C1C(=O)CC(C)(C)C2 (centres undefined) [US20250313563, Compound 885344]
< 0.1 µM and 0.1 to 1 µM	< 0.1 µM and 0.1 to 1 µM	CCC1(c2cccc(-c3cc(C)nnc3C)c2)C2=C(CC(C)(C)NC2=O)NC2N=NC(C(F)(F)F)=C21 (centres undefined) [US20250313563, Compound 949174]
> 5 µM	1 to 5 µM	CC[C@@]1(c2cccc(N(C)c3ccnc(F)c3)c2)C2=CN=NC2NC2=C1C(=O)CC(C)(C)C2 (some centres undefined) [US20250313563, Compound 929453]
0.1 to 1 µM	0.1 to 1 µM	CC[C@]1(c2cc(-c3ccncc3)ccc2C)C2=CN=NC2NC2=C1C(=O)CC(C)(C)C2 (some centres undefined) [US20250313563, Compound 893323]
> 5 µM	1 to 5 µM	CC[C@@]1(c2cccc(-c3cc(C)nc4c3cnn4C)c2)C2=CN=NC2NC2=C1C(=O)NC(C)(C)C2 (some centres undefined) [US20250313563, Compound 952563]
0.1 to 1 µM	< 0.1 µM	CCC1(c2cccc(-c3nc(C)ncc3C)c2)C2=CN=NC2NC2=C1C(=O)CC(C)(C)C2 (centres undefined) [US20250313563, Compound 948091]
